Measurements taken from the NIST ThermoML archive (doi:10.1016/j.jct.2012.06.020).

Settings: 101.33 kPa, Liquid, Vibrating tube method

C[S+](C)[O-] [dimethyl sulfoxide]
Settings | mass density [kg/m3]
293.15 K | 1100.22
298.15 K | 1095.19
303.15 K | 1090.16
313.15 K | 1080.12
323.15 K | 1070.07
333.15 K | 1060.03
